Columns and labels:
Test in all cases: Test D controlled growth environment herbicide test, pre- and postemergence
Format in all cases: in vivo
[1] = tested on: Russian thistle (Salsola kali)
Outline: (§1)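 Rating is visual, 0–100 scale (100 = complete control), made against untreated plants 14–21 d after treatment in controlled growth conditions. Postemergence sprays went onto 1- to 4-leaf plants in peat medium; preemergence sprays onto silt loam after sowing; formulation included a surfactant.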

[2] = tested on: blackgrass (Alopecurus myosuroides)
Outline: as §1

[3] = tested on: bluegrass (annual bluegrass, Poa annua)
Outline: as §1

[4] = tested on: buckwheat, wild (wild buckwheat, Polygonum convolvulus)
Outline: as §1

[5] = tested on: canarygrass (Phalaris minor)
Outline: as §1

[6] = tested on: chickweed (common chickweed, Stellaria media)
Outline: as §1

[7] = tested on: field poppy (Papaver rhoeas)
Outline: as §1

[8] = tested on: foxtail, green (green foxtail, Setaria viridis)
Outline: as §1

[9] = tested on: galium (catchweed bedstraw, Galium aparine)
Outline: as §1

[10] = tested on: kochia (Kochia scoparia)
Outline: as §1

[11] = tested on: pigweed (Amaranthus retroflexus)
Outline: as §1

[12] = tested on: ryegrass, Italian (Italian ryegrass, Lolium multiflorum)
Outline: as §1

[13] = tested on: wheat, winter (winter wheat, Triticum aestivum)
Outline: as §1

[14] = Postemergence, 31 g ai/ha, scale 0 to 100 (0 no effect, 100 complete control)
[15] = Postemergence, 125 g ai/ha, visual rating on scale 0 (no effect) to 100 (complete control), 14 to 21 d
[16] = Postemergence, 250 g ai/ha, scale 0 to 100 (0 no effect, 100 complete control)
[17] = Preemergence, 62 g ai/ha, scale 0 to 100 (0 no effect, 100 complete control)
[18] = Preemergence, 125 g ai/ha, scale 0 to 100 (0 no effect, 100 complete control)
[19] = Preemergence, 250 g ai/ha, scale 0 to 100 (0 no effect, 100 complete control)
[20] = postemergence, 62 g ai/ha, scale 0 to 100, 0 no effect, 100 complete control

CC(=O)Oc1c(C)nn(C)c(=O)c1-c1c(C)sc2ccc(C)cc12 [Compound 25]
Russian Thistle plant response rating [1, 14]: 70
Plant response rating, Russian Thistle [1, 15]: 80
Plant response rating, Russian Thistle [1, 16]: 90
Plant response rating (scale of 0 to 100), Russian Thistle ([1]; Preemergence, 31 g ai/ha): 10
Plant response rating, Russian Thistle [1, 17]: 25
Plant response rating, Russian Thistle [1, 18]: 40
Plant response rating, Russian Thistle [1, 19]: 90
Plant response rating, Russian Thistle [1, 20]: 75
Blackgrass plant response rating [2, 14]: 65
Plant response rating, Blackgrass [2, 15]: 80
Plant response rating, Blackgrass [2, 16]: 80
Plant response rating (scale of 0 to 100), Blackgrass ([2]; Preemergence, 31 g ai/ha): 85
Plant response rating, Blackgrass [2, 17]: 90
Plant response rating, Blackgrass [2, 18]: 90
Blackgrass plant response rating [2, 19]: 95
Plant response rating, Blackgrass [2, 20]: 75
Bluegrass plant response rating [3, 14]: 10
Plant response rating, Bluegrass [3, 15]: 30
Plant response rating, Bluegrass [3, 16]: 40
Plant response rating (scale of 0 to 100), Bluegrass ([3]; Preemergence, 31 g ai/ha): 25
Plant response rating, Bluegrass [3, 17]: 35
Plant response rating, Bluegrass [3, 18]: 40
Bluegrass plant response rating [3, 19]: 75
Plant response rating, Bluegrass [3, 20]: 20
Buckwheat, Wild plant response rating [4, 14]: 80
Plant response rating, Buckwheat, Wild [4, 15]: 100
Plant response rating, Buckwheat, Wild [4, 16]: 100
Plant response rating (scale of 0 to 100), Buckwheat, Wild ([4]; Preemergence, 31 g ai/ha): 0
Plant response rating, Buckwheat, Wild [4, 17]: 0
Plant response rating, Buckwheat, Wild [4, 18]: 20
Plant response rating, Buckwheat, Wild [4, 19]: 25
Plant response rating, Buckwheat, Wild [4, 20]: 100
Canarygrass plant response rating [5, 14]: 70
Plant response rating, Canarygrass [5, 15]: 80
Plant response rating, Canarygrass [5, 16]: 85
Plant response rating (scale of 0 to 100), Canarygrass ([5]; Preemergence, 31 g ai/ha): 80
Plant response rating, Canarygrass [5, 17]: 80
Plant response rating, Canarygrass [5, 18]: 95
Plant response rating, Canarygrass [5, 19]: 100
Plant response rating, Canarygrass [5, 20]: 80
Chickweed plant response rating [6, 14]: 98
Plant response rating, Chickweed [6, 15]: 100
Plant response rating, Chickweed [6, 16]: 100
Plant response rating (scale of 0 to 100), Chickweed ([6]; Preemergence, 31 g ai/ha): 95
Plant response rating, Chickweed [6, 17]: 100
Plant response rating, Chickweed [6, 18]: 100
Plant response rating, Chickweed [6, 19]: 100
Plant response rating, Chickweed [6, 20]: 98
Field Poppy plant response rating [7, 14]: 70
Plant response rating, Field Poppy [7, 15]: 100
Plant response rating, Field Poppy [7, 16]: 100
Plant response rating (scale of 0 to 100), Field Poppy ([7]; Preemergence, 31 g ai/ha): 95
Plant response rating, Field Poppy [7, 17]: 100
Plant response rating, Field Poppy [7, 18]: 100
Plant response rating, Field Poppy [7, 19]: 100
Plant response rating, Field Poppy [7, 20]: 80
Foxtail, Green plant response rating [8, 14]: 60
Plant response rating, Foxtail, Green [8, 15]: 70
Plant response rating, Foxtail, Green [8, 16]: 75
Plant response rating (scale of 0 to 100), Foxtail, Green ([8]; Preemergence, 31 g ai/ha): 35
Plant response rating, Foxtail, Green [8, 17]: 90
Plant response rating, Foxtail, Green [8, 18]: 95
Plant response rating, Foxtail, Green [8, 19]: 100
Plant response rating, Foxtail, Green [8, 20]: 65
Galium plant response rating [9, 14]: 100
Plant response rating, Galium [9, 15]: 100
Plant response rating, Galium [9, 16]: 100
Plant response rating (scale of 0 to 100), Galium ([9]; Preemergence, 31 g ai/ha): 70
Plant response rating, Galium [9, 17]: 90
Plant response rating, Galium [9, 18]: 95
Plant response rating, Galium [9, 19]: 100
Plant response rating, Galium [9, 20]: 100
Kochia plant response rating [10, 14]: 90
Plant response rating, Kochia [10, 15]: 100
Plant response rating, Kochia [10, 16]: 100
Plant response rating (scale of 0 to 100), Kochia ([10]; Preemergence, 31 g ai/ha): 0
Plant response rating, Kochia [10, 17]: 10
Plant response rating, Kochia [10, 18]: 40
Plant response rating, Kochia [10, 19]: 100
Plant response rating, Kochia [10, 20]: 95
Pigweed plant response rating [11, 14]: 80
Plant response rating, Pigweed [11, 15]: 95
Plant response rating, Pigweed [11, 16]: 100
Plant response rating (scale of 0 to 100), Pigweed ([11]; Preemergence, 31 g ai/ha): 100
Plant response rating, Pigweed [11, 17]: 100
Plant response rating, Pigweed [11, 18]: 100
Plant response rating, Pigweed [11, 19]: 100
Plant response rating, Pigweed [11, 20]: 100
Ryegrass, Italian plant response rating [12, 14]: 75
Plant response rating, Ryegrass, Italian [12, 15]: 85
Plant response rating, Ryegrass, Italian [12, 16]: 90
Plant response rating (scale of 0 to 100), Ryegrass, Italian ([12]; Preemergence, 31 g ai/ha): 95
Plant response rating, Ryegrass, Italian [12, 17]: 100
Plant response rating, Ryegrass, Italian [12, 18]: 100
Plant response rating, Ryegrass, Italian [12, 19]: 100
Plant response rating, Ryegrass, Italian [12, 20]: 85
Wheat, Winter plant response rating [13, 14]: 0
Plant response rating, Wheat, Winter [13, 15]: 5
Plant response rating, Wheat, Winter [13, 16]: 20
Plant response rating (scale of 0 to 100), Wheat, Winter ([13]; Preemergence, 31 g ai/ha): 0
Plant response rating, Wheat, Winter [13, 17]: 0
Plant response rating, Wheat, Winter [13, 18]: 0
Plant response rating, Wheat, Winter [13, 19]: 20
Plant response rating, Wheat, Winter [13, 20]: 0

Source: US10597388B2, “Pyridazinone herbicides” (FMC CORPORATION, priority 2014, dated 2020)
